The text below walks through data of US20250281497A1, “FUSED AMINO PYRIMIDINE COMPOUNDS FOR TREATMENT OF SEIZURE DISORDERS” (Ovid Therapeutics Inc., priority 2024, published 2025).

The test concerns the target T1, KCC2 (Homo sapiens, UniProt Q9H2X9).
T1 construct: expressed in transfected cells; host or cells: HEK-293 (ATCC CRL-1573)
T1 sequence (Q9H2X9 1-1116 isoform Q9H2X9-2): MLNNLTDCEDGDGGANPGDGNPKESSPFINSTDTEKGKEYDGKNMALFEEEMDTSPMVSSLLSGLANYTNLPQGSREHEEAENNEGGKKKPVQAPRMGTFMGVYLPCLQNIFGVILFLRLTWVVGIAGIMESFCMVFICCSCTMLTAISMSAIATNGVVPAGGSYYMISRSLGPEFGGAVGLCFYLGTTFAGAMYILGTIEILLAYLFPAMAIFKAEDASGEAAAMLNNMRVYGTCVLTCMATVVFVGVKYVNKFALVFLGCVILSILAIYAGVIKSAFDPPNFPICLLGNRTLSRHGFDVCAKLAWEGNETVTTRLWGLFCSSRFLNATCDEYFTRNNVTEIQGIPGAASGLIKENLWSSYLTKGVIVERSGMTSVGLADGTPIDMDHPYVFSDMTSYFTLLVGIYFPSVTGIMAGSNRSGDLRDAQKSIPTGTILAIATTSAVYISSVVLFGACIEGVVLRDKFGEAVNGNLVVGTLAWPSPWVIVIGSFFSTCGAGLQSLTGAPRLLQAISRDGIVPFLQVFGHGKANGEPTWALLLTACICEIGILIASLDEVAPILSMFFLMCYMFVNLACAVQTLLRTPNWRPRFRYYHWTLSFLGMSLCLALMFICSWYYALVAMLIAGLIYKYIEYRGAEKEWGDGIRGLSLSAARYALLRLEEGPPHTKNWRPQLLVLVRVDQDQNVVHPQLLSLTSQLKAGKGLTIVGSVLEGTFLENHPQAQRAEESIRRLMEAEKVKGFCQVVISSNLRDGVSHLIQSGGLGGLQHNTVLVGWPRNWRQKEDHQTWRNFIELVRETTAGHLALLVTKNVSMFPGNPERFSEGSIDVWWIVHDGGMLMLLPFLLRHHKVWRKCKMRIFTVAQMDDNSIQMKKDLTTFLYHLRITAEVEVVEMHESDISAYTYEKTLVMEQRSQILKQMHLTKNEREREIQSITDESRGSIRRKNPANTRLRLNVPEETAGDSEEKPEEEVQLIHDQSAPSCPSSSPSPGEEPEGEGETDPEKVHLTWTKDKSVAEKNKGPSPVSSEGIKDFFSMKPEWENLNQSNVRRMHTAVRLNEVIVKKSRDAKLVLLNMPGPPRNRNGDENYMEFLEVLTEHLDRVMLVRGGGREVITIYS
Kind of test: FLIPR Tl+ flux assay, HEK-293 cells expressing KCC2. In kind it is cell-based. How it is done:
A multi-tiered high-throughput screening assay was used, leveraging a proprietary library of 1.3 million small molecule compounds from AstraZeneca (Cambridge, UK) to identify chemical entities capable of activating KCC2. A single point concentration of 30 μM was used to identify potassium flux using an established thallium […] influx FLIPR assay as the primary read out in HEK-293 cells overexpressing KCC2 (Cardarelli et al., Nat. Med. 23, 1394-1396 (2017); Conway et al., J Biol Chem 292, 21253-21263 (2017); Lee et at, 2022, supra).
Cell Culture and biotinylation. […]
FLIPR TI Flux assay. HEK-293 cells were washed with HBSS, and then incubated with loading buffer containing TI sensitive fluorescent dye (https://www.moleculardevices.com), 20 μM bumetanide 20 μM ouabain and 2.5 mM probenecid for 1 h at room temperature (RT) under control conditions or with drugs in the dark using a FlexStation 3 microplate reader (Molecular Devices) and imaged […] for 30 min. Stimulus buffer was added containing 5 mM K^+/0.5 mM Tl^+ and cells were imaged every 1.5 over a 190 second time course The initial rate Tl^+ uptake (Relative Fluorescence Units (RFU) per second) was determined following addition of the stimulus buffer as outlined previously (Conway et at, 2017, supra) (Lee et at, 2022, supra). […]

pEC50: −log10 of the molar value. Where “and” joins values, the source holds several entries; their conditions need not be identical. Identical values can stand only once.

By pEC50 is commonly meant −log10 of the EC50, conventionally taken in molar units. In the case of `C[C@@H]1CN(c2nc3c(c(Nc4ccc(C5CCCCC5)cc4)n2)COC3)CCO1` [Compound A, (R)—N-(4-cyclohexylphenyl)-2-(2-methylmorpholino)-5,7-dihydrofuro[3,4-d]pyrimidin-4-amine], the pEC50 (HEK-293 cells expressing KCC2, 1% β-cyclodextrin vehicle, read-out: EC50 for KCC2 as measured by Tl+ flux) was 6.59 and 6.58. Further, under “saturating concentration of 3 μM, 1% BCD vehicle”, the “maximum potentiation of KCC2” value is 90%.
